# Patent US9499493B2, “2,4-pyrimidinediamine compounds and their uses” (Rigel Pharmaceuticals, Inc., priority 2002, dated 2016)
# Experiments:
# [1] = Pilot dose finding studies (oral); details: in vivo
# Syk kinase = Syk kinase (Homo sapiens (Human), UniProt P43405); assay: Isolated Syk kinase: phosphorylation of a peptide substrate or endogenous substrate (LAT)
# B-cell line BJAB = assay: BJAB toxicity, Cell Titer Glo assay; type: cell-based; details: 18 hours incubation
# Protocol: Seed 50 μl cells (1×10^6/ml) into each well containing 50 μl compound. The final vehicle concentration is 0.5% DMSO, 1.5% MeOH. Shake plates for 1 minute to mix cells and compound. Incubate plates at 37° C. (5% CO2) for 18 hours. Next day, harvest 50 μl cells from each well, add to 50 μl Cell Titer Glo reagent ([…]). Shake plates for 1 minute. Read on luminometer.
# [2] = system: bone marrow derived mast cells (BMMC); assay: BMMC high cell density IgE activation: histamine; type: cell-based, mouse; details: anti-IgE, second part of TABLE 1
# Method in brief: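 IgE-sensitized BMMC (1-3×10^6 cells/ml, MT buffer) were pretreated with compound for 1 h at 37 °C in 0.5% DMSO, then stimulated with DNP-BSA (6× stimulus, 60 ng/ml) for 1 h. Supernatant was taken, and cells were re-incubated 4–5 h in WEI-conditioned medium with compound. Mediators were quantified by ELISA.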
# [3] = system: Salmonella-Escherichia coli tester strains
# [4] = system: cultured human mast cells (CHMC); assay: CHMC high cell density IgE activation: TNFalpha; type: cell-based; details: anti-IgE activation; read-out: CHMC high density TNF-alpha
# Method in brief: (§1)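 IgE-sensitized CHMC at 1-2×10^6 cells/ml were pretreated with compound for 1 h at 37 °C (0.5% DMSO final), then anti-IgE-stimulated for 1 h and supernatant collected. Hexosaminidase was read with a fluorogenic substrate. Pellets were re-incubated 7 h with compound before supernatant ELISAs.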
# BMMC cells = assay: Phosphorylation of proteins downstream of Syk kinase in the IgE receptor cascade, activated BMMC cells; type: cell-based, mouse; details: varying concentrations, FIG. 7
# basophil cells = assay: Basophil ionomycin activation: histamine release assay; type: cell-based, human; details: Basophils
# Protocol: The basophil activation assay was carried out using whole human peripheral blood from donors allergic to dust mites with the majority of the red blood cells removed by dextran sedimentation. Human peripheral blood was mixed 1:1 with 3% dextran T500 and RBCs were allowed to settle for 20-25 min. The upper fraction was diluted with 3 volumes of D-PBS and cells were spun down for 10 min at 1500 rpm, RT. Supernatant was aspirated and cells were washed in an equal volume MT-buffer. Finally, cells were resuspended in MT-buffer containing 0.5% DMSO in the original blood volume. 80 uL cells were mixed with 20 uL compound in the presence of 0.5% DMSO, in triplicate, in a V-bottom 96-well tissue culture plate. A dose range of 8 compound concentrations was tested resulting in a 10-point dose response curve including maximum (stimulated) and minimum (unstimulated) response. […] The cells were stimulated for 30 minutes at 37° C., 5% CO2. The plate was spun for 10 min at 1500 rpm at room temperature and 80 uL the supernatant was harvested for histamine content analysis using the histamine ELISA kit supplied by Immunotech. The ELISA was performed according to supplier's instructions.
# Assays for ionomycin-induced basophil cell degranulation were carried out as described for the Basophil IgE or Dustmite Activation Assay (Section 6.4.6, supra), with the exception that following incubation with compound, cells were stimulated with 20 μl of 2 μM ionomycin.
# [5] = system: cultured human mast cells (CHMC); assay: CHMC high cell density IgE activation: histamine; type: cell-based; details: anti-IgE activation
# Method in brief: as §1
# [6] = system: bone marrow derived mast cells (BMMC); assay: BMMC high cell density IgE activation: IL-6; type: cell-based, mouse; details: anti-IgE, second part of TABLE 1
# Protocol: Inhibition of degranulation was measured at both low and high cell density by quantifying the release of the granule specific factors tryptase, histamine and hexosaminidase. Inhibition of release and/or synthesis of lipid mediators was assessed by measuring the release of leukotriene LTC4 and inhibition of release and/or synthesis of cytokines was monitored by quantifying TNF-α, IL-6 and IL-13. Tryptase and hexosaminidase were quantified using fluorogenic substrates as described in their respective examples. […] The protocols of the various assays are provided below.
# After sensitizing, cells are counted, pelleted (1000 rpm, 5-10 minutes), and resuspended at 1-3×10^6 cells/ml in MT buffer. Add 100 ul of cell suspension to each well and 100 ul of compound dilutions. The final vehicle concentration is 0.5% DMSO. Incubate at 37° C. (5% CO2) for 1 hour. After 1 hour of compound treatment, stimulate cells with 6× stimulus (60 ng/ml DNP-BSA). Mix wells with the cells and allow plates to incubate at 37° C. (5% CO2) for one hour. After 1 hour incubation, pellet cells (10 minutes, 1000 RPM) and collect 200 ul per well of the supernatant, being careful not to disturb pellet, and transfer to a clean tube or 96-well plate. Place the supernatant plate on ice. During the 4-5 hour step (see next) perform the hexosiminidase assay. Resuspend cell pellet in 240 ul WEI-conditioned media containing 0.5% DMSO and corresponding concentration of compound. Incubate BMMC cells for 4-5 hours at 37° C. (5% CO2). After incubation, pellet cells (1000 RPM, 10 minutes) and collect 225 ul per well and place in −80° C. until ready to perform ELISAS. ELISAS are performed on appropriately diluted samples (determined empirically for each donor cell population so that the sample measurement falls within the standard curve) following the supplier's instructions.
# [7] = system: cultured human mast cells (CHMC); assay: CHMC high cell density IgE activation: hexos (hexosaminidase) release; type: cell-based; details: anti-IgE activation
# Method in brief: as §1
# [8] = system: bone marrow derived mast cells (BMMC); assay: BMMC high cell density IgE activation: hexosaminidase; type: cell-based, mouse; details: anti-IgE, second part of TABLE 1, read-out: BMMC anti-IgE hexos. IC50
# Method in brief: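 IgE-sensitized BMMC at 1-3×10^6 cells/ml preincubated 1 hour at 37° C. with compound (0.5% DMSO), then stimulated 1 hour with DNP-BSA (6× stimulus 60 ng/ml). Supernatant hexosaminidase measured with 2 mM 4-methylumbelliferyl-N-acetyl-glucosaminide substrate at 37° C., read at 5–30 minutes.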
# [9] = system: cultured human mast cells (CHMC); assay: CHMC high cell density IgE activation: tryptase; type: cell-based; details: anti-IgE activation
# Protocol: After sensitizing, cells are counted, pelleted (1000 rpm, 5-10 minutes), and resuspended at 1-2×10^6 cells/ml in MT buffer. Add 100 ul of cell suspension to each well and 100 ul of compound dilutions. The final vehicle concentration is 0.5% DMSO. Incubate at 37° C. (5% CO2) for 1 hour. After 1 hour of compound treatment, stimulate cells with 6× anti-IgE. Mix wells with the cells and allow plates to incubate at 37° C. (5% CO2) for one hour. After 1 hour incubation, pellet cells (10 minutes, 1000 RPM) and collect 200 ul per well of the supernatant, being careful not to disturb pellet. Place the supernatant plate on ice. During the 7-hour step (see next) perform tryptase assay on supernatant that had been diluted 1:500. Resuspend cell pellet in 240 ul of CM media containing 0.5% DMSO and corresponding concentration of compound. Incubate CHMC cells for 7 hours at 37° C. (5% CO2). After incubation, pellet cells (1000 RPM, 10 minutes) and collect 225 ul per well and place in −80° C. until ready to perform ELISAS. ELISAS are performed on appropriately diluted samples (determined empirically for each donor cell population so that the sample measurement falls within the standard curve) following the supplier's instructions.
# [10] = increasing concentrations, FIG. 8
Structure (SMILES),multiple (7-day) doses not tolerated [1],mode of inhibition of Syk kinase (Syk kinase; FIG. 9),Syk kinase phosphorylation of a peptide substrate (Syk kinase; [10]),Syk kinase phosphorylation of an endogenous substrate (LAT) (Syk kinase; [10]),IC50 (B-cell line BJAB),IC50 [2],Ames test result [3],IC50 [4],phosphorylation of various proteins downstream of Syk kinase (BMMC cells),IC50 (basophil cells),IC50 [5],IC50 [6],IC50 [7],IC50 [8],IC50 [9]
"CNC(=O)COc1cccc(Nc2ncc(F)c(Nc3ccc4c(c3)NCCO4)n2)c1 [R921219, N4-(1,4-Benzoxazin-6-yl)-5-fluoro-N2-[3-(N-methylamino)carbonylmethyleneoxyphenyl]-2,4-pyrimidinediamine]",≥ 200 mg/kg/day,ATP competitive,dose responsive inhibition,dose responsive inhibition,> 10 µM,58 nM,"test positive in tester strain TA1537, with and without metabolic activation",190 nM,inhibit,> 10 µM,162 nM,,,,
"CNC(=O)COc1cccc(Nc2ncc(F)c(Nc3cccc(O)c3)n2)c1 [R926508, 5-Fluoro-N4-(3-hydroxyphenyl)-N2-[3-(N-methylamino)carbonylmethyleneoxyphenyl]-2,4-pyrimidinediamine]",,,,,> 10 µM,,,,,> 10 µM,105 nM,26 nM,170 nM,86 nM,434 nM
